Experimental data as given in US20060079550A1, “Amino acid derivatives useful for the treatment of alzheimer's disease” (priority 2001, published 2006).
pKi: −log10 of the molar value.

Molecular target: aspartyl proteases, in particular, beta-secretase
Test: Ki of the compounds listed in Tables 1 and 2 (no method described)
Format: biochemical
Conditions: Table 1, compounds of formula Ia, W is -(CH2)n-

Row | Structure (SMILES) | pKi
1 | O=C(N[C@@H](CNS(=O)(=O)c1ccc(Br)cc1)C(=O)O)OCC1c2ccccc2-c2ccccc21 [Compound No. 18, (S)-2-(9-fluorenylmethoxycarbonylamino)-3-(4-bromobenzenesulfonylamino)-propanoic Acid] | 4.12
2 | NC(=O)C(CCCCNS(=O)(=O)c1ccc(Br)cc1)NC(=O)OCC1c2ccccc2-c2ccccc21 [Compound No. 20, (2R,2S)-(9-fluorenylmethoxycarbonylamino)-6-(4-bromobenzenesulfonylamino)-1-hexanamide] | 4.64
3 | O=C(N[C@H](CO)CCCCNS(=O)(=O)c1ccc(Br)cc1)OCC1c2ccccc2-c2ccccc21 [Compound No. 22, (2S)-(9-fluorenylmethoxycarbonylamino)-6-(4-bromobenzenesulfonylamino)-1-hexanol] | < 5.22
4 | O=C(N[C@@H](CCCCNS(=O)(=O)c1ccc(Br)cc1)C(=O)O)c1cnc2cc(C(F)(F)F)ccc2c1O [Compound No. 23, Nα-(4-hydroxy-7-trifluoromethylquinoline-3-carbonyl)-Nε-(4-bromobenzenesulfonyl)-L-lysine] | < 4.30
5 | O=C(N[C@@H](CCCCNS(=O)(=O)c1ccccc1Br)C(=O)O)OCC1c2ccccc2-c2ccccc21 [Compound No. 24, Nε-(2-bromobenzenesulfonyl)-Nα-(9-fluorenylmcthoxycarbonyl)-L-lysine] | 4.44
6 | CC(C)c1cc(C(C)C)c(S(=O)(=O)NCCCC[C@H](NC(=O)OCC2c3ccccc3-c3ccccc32)C(=O)O)c(C(C)C)c1 [Compound No. 25, Nε-(2,4,6-triisopropylbenzencsulfonyl)-Nα-(9-fluorenylmethoxycarbonyl)-L-lysine] | < 5.51
7 | Cc1cc(C)c(S(=O)(=O)NCCCC[C@H](NC(=O)OCC2c3ccccc3-c3ccccc32)C(=O)O)c(C)c1 [Compound No. 27, Nε-(2,4,6-trimethylbenzenesulfonyl)-Nα-(9-fluorenylmethoxycarbonyl)-L-lysine] | < 4.30
8 | O=C(N[C@@H](CCCCNS(=O)(=O)c1cccc2cccnc12)C(=O)O)OCC1c2ccccc2-c2ccccc21 [Compound No. 28, Nε-(8-quinolinesulfonyl)-Nα-(9-fluorenylmethoxycarbonyl)-L-lysine] | 4.82
9 | O=C(Cc1c[nH]c2ccccc12)N[C@@H](CCCCNS(=O)(=O)c1ccc(Br)cc1)C(=O)O [Compound No. 29, Nα-(3-indoleacetyl)-Nε-(4-bromobenzenesulfonyl)-L-lysine] | 4.98
10 | O=C(CC1c2ccccc2-c2ccccc21)N[C@@H](CCCCNS(=O)(=O)c1ccc(Br)cc1)C(=O)O [Compound No. 30, Nα-(9-fluorenemethylcarbonyl)-Nε-(4-bromobenzenesulfonyl)-L-lysine] | 4.15
11 | O=C(N[C@@H](CCCCNS(=O)(=O)Cc1ccccc1)C(=O)O)OCC1c2ccccc2-c2ccccc21 [Compound No. 33, Nε-phenylmethylsulfonyl-Nα-(9-fluorenylmethoxycarbonyl)-L-lysine] | 4.70
12 | O=C(N[C@@H](CCCCNS(=O)(=O)c1cccc(C(F)(F)F)c1)C(=O)O)OCC1c2ccccc2-c2ccccc21 [Compound No. 34, Nε-(3-trifluoromethylbenzenesulfonyl)-Nα-(9-fluorenylmethoxycarbonyl)-L-lysine] | 4.66
13 | CC1(C)[C@@H]2CC[C@@]1(CS(=O)(=O)NCCCC[C@H](NC(=O)OCC1c3ccccc3-c3ccccc31)C(=O)O)C(=O)C2 [Compound No. 35, Nε-(1S)-(10-camphorsulfonyl)-Nα-(9-fluorenylmethoxycarbonyl)-L-lysine] | 4.48
14 | O=C(N[C@@H](CCCCNS(=O)(=O)c1ccc(Br)cc1)C(=O)O)C(c1ccccc1)c1ccccc1 [Compound No. 36, Nα-(diphenylacetyl)-Nε-(4-bromobenzenesulfonyl)-L-lysine] | 4.62
15 | O=C(O)[C@H](CCCCNS(=O)(=O)c1ccc(Br)cc1)NC(=O)C(O)(c1ccccc1)c1ccccc1 [Compound No. 37, Nα-(diphenylhydroxyacetyl)-Nε-(4-bromobenzenesulfonyl)-L-lysine] | 4.27
16 | Cc1ccc(S(=O)(=O)N(Cc2ccccc2)[C@@H](CCCCNC(=O)OCC2c3ccccc3-c3ccccc32)C(=O)O)cc1 [Compound No. 40, Nα-benzyl-Nα-(4-methylbenzenesulfonyl)-Nε-(9-fluorenylmethoxycarbonyl)-L-lysine] | 7.71
17 | CC(C)CN(CCC[C@H](NC(=O)OCC1c2ccccc2-c2ccccc21)C(=O)O)S(=O)(=O)c1ccc(Br)cc1 [Compound No. 41, Nα-(9-fluorenylmethoxycarbonyl)-Nδ-isobutyl-Nδ-(4-bromobenzenesulfonyl)-L-ornithine] | < 4.30
18 | Cc1cc(C)c(S(=O)(=O)N(CC(C)C)[C@@H](CCCCNC(=O)OCC2c3ccccc3-c3ccccc32)C(=O)O)c(C)c1 [Compound No. 42, Nα-isobutyl-Nα-(2,4,6-trimethylbenzenesulfonyl)-Nε-(9-fluorenylmethoxycarbonyl)-L-lysine] | < 7.00
19 | CC(C)CN(C(=O)c1ccccc1)[C@@H](CCCCNC(=O)OCC1c2ccccc2-c2ccccc21)C(=O)O [Compound No. 46, Nα-isobutyl-Nα-benzoyl-Nε-(9-fluorenylmethoxycarbonyl)-Llysine] | < 7.00
20 | O=C(N[C@@H](CCCCNS(=O)(=O)c1cc(Cl)ccc1Cl)C(=O)O)OCC1c2ccccc2-c2ccccc21 [Compound No. 54, Nε-(2,5-dichlorobenzenesulfonyl)-Nα-(9-fluorenylmethoxycarbonyl)-L-lysine] | < 5.20
21 | O=C(O)[C@H](CCCNS(=O)(=O)c1ccc(Br)cc1)NS(=O)(=O)c1ccc(Br)cc1 [Compound No. 57, Nα,Nε-di-(4-bromobenzenesulfonyl)-L-ornithine] | 4.37
22 | O=C(O)[C@H](CCCN(Cc1ccc(F)cc1)S(=O)(=O)c1ccc(Br)cc1)NS(=O)(=O)c1ccc(Br)cc1 [Compound No. 59, Nα,Nδ-di-(4-bromobenzenesulfonyl)-Nδ-(4-fluorobenzyl)-L-ornithine] | < 4.46
23 | O=C(O)[C@H](CCCCN(Cc1ccc(F)cc1)S(=O)(=O)c1ccc(Br)cc1)NS(=O)(=O)c1ccc(Br)cc1 [Compound No. 60, Nα,Nε-di-(4-bromobenzenesulfonyl)-Nε-(4-fluorobenzyl)-L-lysine] | < 4.30
24 | O=C(N[C@@H](CCCNS(=O)(=O)c1ccc([N+](=O)[O-])cc1)C(=O)O)OCC1c2ccccc2-c2ccccc21 [Compound No. 62, Nδ-(4-nitrobenzenesulfonyl)-Nα-(9-fluorenylmethoxycarbonyl)-L-ornithine] | 4.58
25 | O=C(N[C@@H](CCCCNS(=O)(=O)c1ccc(I)cc1)C(=O)O)OCC1c2ccccc2-c2ccccc21 [Compound No. 64, Nε-(4-iodobenzenesulfonyl)-Nα-(9-fluorenylmethoxycarbonyl)-L-lysine] | 4.72
26 | O=C(N[C@@H](CCCCNS(=O)(=O)c1ccc(Br)cc1)C(=O)O)c1ccccc1 [Compound No. 65, Nα-benzoyl-Nε-(4-bromobenzenesulfonyl)-L-lysine] | < 4.30

Further lines, results first:

Row | pKi | Structure (SMILES)
27 | 5.70 | CC(C)CN(CCCC[C@H](NC(=O)OCC1c2ccccc2-c2ccccc21)C(=O)O)S(=O)(=O)c1ccc(Br)cc1 [Compound No. 21, Nα-(9-fluorenylmethoxycarbonyl)-Nε-isobutyl-Nε-(4-bromobenzenesulfonyl)-L-lysine]
28 | 5.00 | O=C(N[C@@H](CCCCNS(=O)(=O)c1ccc2ccccc2c1)C(=O)O)OCC1c2ccccc2-c2ccccc21 [Compound No. 32, Nε-(2-naphthalenesulfonyl)-Nα-(9-fluorenylmethoxycarbonyl)-L-lysine]
29 | 5.33 | O=C(N[C@@H](CCCCNS(=O)(=O)c1ccc(Br)cc1)C(=O)O)C1c2ccccc2-c2ccccc21 [Compound No. 38, Nα-(9-fluorenecarbonyl)-Nε-(4-bromobenzenesulfonyl)-L-lysine]
30 | 8.41 | Cc1ccc(S(=O)(=O)N(CC2CC2)[C@@H](CCCCNC(=O)OCC2c3ccccc3-c3ccccc32)C(=O)O)cc1 [Compound No. 43, Nα-cyclopropylmethyl-Nα-(4-methylbenzenesulfonyl)-Nε-(9-fluorenylmethoxycarbonyl)-L-lysine]
31 | 8.68 | CC(C)CN([C@@H](CCCCNC(=O)OCC1c2ccccc2-c2ccccc21)C(=O)O)S(=O)(=O)c1ccc(N)cc1 [Compound No. 44, Nα-(4-aminobenzenesulfonyl)-Nα-isobutyl-Nε-(9-fluorenylmethoxycarbonyl)-L-lysine]
32 | 5.05 | O=C(N[C@@H](CCCCNS(=O)(=O)c1ccccc1)C(=O)O)OCC1c2ccccc2-c2ccccc21 [Compound No. 49, Nε-benzenesulfonyl-Nα-(9-fluorchylmethoxycarbonyl)-L-lysine]
33 | 5.22 | O=C(N[C@@H](CCCCNS(=O)(=O)c1ccc([N+](=O)[O-])cc1)C(=O)O)OCC1c2ccccc2-c2ccccc21 [Compound No. 50, Nε-(4-nitrobenzenesulfonyl)-Nα-(9-fluorenylmethoxycarbonyl)-L-lysine]
34 | 5.17 | Nc1ccc(S(=O)(=O)NCCCC[C@H](NC(=O)OCC2c3ccccc3-c3ccccc32)C(=O)O)cc1 [Compound No. 52, Nε-(4-aminobenzenesulfonyl)-Nα-(9-fluorenylmethoxycarbonyl)-L-lysine]
35 | 5.32 | O=C(N[C@@H](CCCCNS(=O)(=O)c1ccc(Cl)cc1)C(=O)O)OCC1c2ccccc2-c2ccccc21 [Compound No. 53, Nε-(4-chlorobenzenesulfonyl)-Nα-(9-fluorenylmethoxycarbonyl)-L-lysine]
36 | 5.19 | O=C(N[C@@H](CCCCNS(=O)(=O)c1ccc(F)cc1)C(=O)O)OCC1c2ccccc2-c2ccccc21 [Compound No. 55, Nε-(4-fluorobenzenesulfonyl)-Nα-(9-fluorenylmethoxycarbonyl)-L-lysine]
37 | 5.72 | O=C(NCCCC[C@H](NS(=O)(=O)c1ccc(Br)cc1)C(=O)O)OCC1c2ccccc2-c2ccccc21 [Compound No. 66, Nα-(4-bromobenzenesulfonyl)-Nε-(9-fluorenylmethoxycarbonyl)-L-lysine]
38 | 8.37 | Cc1ccc(S(=O)(=O)N(CC(C)C)[C@@H](CCCCNC(=O)OCC2c3ccccc3-c3ccccc32)C(=O)O)cc1 [Compound No. 67, Nα-isobutyl-Nα-(4-methylbenzenesulfonyl)-Nε-(9-fluorenylmethoxycarbonyl)-L-lysine]
